Measured values as given in patent US20020035124A1, “Insecticidal and miticidal compositions” (priority 1996, published 2002).

Columns and labels:
[1] = tested on: Kanzawa spider mite (Tetranychus kanzawai kishida) which are resistant to chlorfenapyr; assay: Miticidal effect against female imagines of chlorfenapyr-resistant Kanzawa spider mite (leaf disk spray test); conditions: for LC50: single test compound, female imago, chlorfenapyr-resistant strain, mortality two days after spray treatment, probit analysis
Procedure: In this experiment, the miticidal effect against female imagines (adults) of Kanzawa spider mite (Tetranychus kanzawai kishida) which are resistant to chlorfenapyr is evaluated.
Round leaf disks (2 cm diameter) are cut out of a first leaf of kidney bean by a leaf punch and 4 sheets of the disks are placed on wet sanitary cotton in a plastic cup (8 cm diameter). On each leaf disk, 4 female imagines of Kanzawa spider mite (Tetranychus kanzawai kishida) which had acquired a strong resistance to chlorfenapyr are inoculated.
Each plastic cup is sprayed with 3.5 ml of a test solution with a rotary spray tower (Mizuho Scientific Co., Ltd.) and stored in a constant temperature chamber held at 25±1° C. (32 individuals are tested per concentration, 4-5 concentrations are evaluated per formulation and 2 performances are repeated). […] [formula] […]
The tested mite was a female image of the chlorfenapyr-resistant strain of Kanzawa spider mite which was obtained by a long artificial selection procedure against chlorfenapyr in a laboratory on a colony of Kanzawa spider mite which had been collected in the field.

[2] = tested on: susceptible strain of spider mite; assay: LC50 against a susceptible strain of spider mite; assay type: in vivo

## CCC(C)c1ccccc1OC(=O)NC (centres unmarked) [BPMC, 2-sec-Butylphenyl-N-methylcarbamate]
[1]
  LC50: 3200 ppm

## CCSCc1ccccc1OC(=O)NC [Ethiofencarb, 2-(Ethylthiomethyl)phenyl methylcarbamate]
[1]
  LC50: 2100 ppm

## CCOCn1c(-c2ccc(Cl)cc2)c(C#N)c(Br)c1C(F)(F)F [Chlorfenapyr, 4-Bromo-2-(4-chlorophenyl)-1-(ethoxymethyl)-5-(trifluoromethyl)pyrrole-3-carbonitrile]
[1]; LC50 resistant strain relative to susceptible strain
  resistance to chlorfenapyr of the resistant strain versus susceptible strain: ~300 fold
[1]
  LC50: 1500 ppm
[2]
  LC50: about 5 ppm
